Read-outs that look alike come from different tables or passages of the source.
Experiments:
[1] = target: B-Raf (Homo sapiens (Human), UniProt P15056); assay: Raf kinase inhibitory activity (Raf/MEK1/MAPK2 cascade, MBP phosphorylation, 32P); format: biochemical
Method: (§1) In order to examine the inhibitory activities of the compounds of the present invention against Raf kinases (B-Raf, C-Raf, B-Raf^V600E), the following experiment was performed.
(§2) (1) Consecutive Signal Transduction Reaction
(§3) To a centrifugation tube, 20 μl of a dilution solvent (20 mM MOPS, pH 7.2, 25 mM (3-glycerol phosphate, 5 mM EGTA, 1 mM sodium orthovanadate, 1 mM dithiothreitol) and 20 μl of a Mg/ATP mixture (500 μM ATP and 75 mM magnesium chloride) were added. Then, each of the derivative compounds of formula 1 was added. As a control, 1 ng of activated raf, 0.4 ng of inactivated MEK1 and 1 μg of inactivated MAPK2 were added without adding Example compounds. The solutions in the tube were concentrated at the bottom of the tube by centrifugation, and then allowed to react at 30° C. for 30 minutes, and 4 μl of the mixture solution was taken and used in the next experimental step.
(§4) (2) Phosphorylation of Substrate Protein MBP by MAPK2
(§5) To 4 μl of the mixture solution taken in (1), 10 μl of a dilution solvent, 20 μg of MBP as a substrate, and 10 μl of diluted [γ-32P]ATP (1 μCi/μL) were added. The solutions in the tube were concentrated at the bottom of the tube by centrifugation, and then allowed to react at 30° C. for 30 minutes. 25 μl of the reaction solution was carefully placed on the center of 2 cm×2 cm P81 filter paper for 30 seconds. Next, the filter paper was washed three times with 0.75% phosphoric acid solution for 10 minutes each time and washed once with acetone for 5 minutes. Next, the filter paper was transferred into a scintillation vial, and 5 ml of a scintillation cocktail was added thereto. Raf activity inhibition rate (IC50) was measured by reading the radioactivity with a scintillation counter in comparison with the control.

[2] = target: B-Raf V600E (Homo sapiens (Human), UniProt P15056, V600E); assay: as above; format: biochemical
Chain of B-Raf V600E (P15056 whole entry V600E): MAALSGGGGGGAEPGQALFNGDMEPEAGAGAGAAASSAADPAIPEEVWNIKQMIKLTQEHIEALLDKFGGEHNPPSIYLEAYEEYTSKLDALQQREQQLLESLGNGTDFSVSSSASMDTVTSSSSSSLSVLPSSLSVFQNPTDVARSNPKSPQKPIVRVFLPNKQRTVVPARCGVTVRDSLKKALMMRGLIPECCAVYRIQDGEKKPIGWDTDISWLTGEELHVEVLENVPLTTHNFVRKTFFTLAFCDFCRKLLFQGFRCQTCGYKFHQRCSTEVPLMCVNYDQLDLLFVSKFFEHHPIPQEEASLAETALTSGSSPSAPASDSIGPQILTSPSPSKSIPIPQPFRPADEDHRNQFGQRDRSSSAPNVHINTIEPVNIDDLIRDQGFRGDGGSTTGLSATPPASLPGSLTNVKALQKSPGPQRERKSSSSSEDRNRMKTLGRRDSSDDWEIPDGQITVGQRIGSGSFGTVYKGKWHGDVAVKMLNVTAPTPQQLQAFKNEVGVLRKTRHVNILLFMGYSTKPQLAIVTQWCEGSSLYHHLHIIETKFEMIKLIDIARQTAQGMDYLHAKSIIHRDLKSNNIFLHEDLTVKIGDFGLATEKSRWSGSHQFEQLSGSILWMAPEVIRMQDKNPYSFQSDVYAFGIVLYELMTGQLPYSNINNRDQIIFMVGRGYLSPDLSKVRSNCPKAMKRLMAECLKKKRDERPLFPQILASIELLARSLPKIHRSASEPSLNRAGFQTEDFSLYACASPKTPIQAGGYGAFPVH
Method: as §1, §2, §3, §4, §5

[3] = target: C-Raf (Homo sapiens (Human), UniProt P04049); assay: as above; format: biochemical
Chain of C-Raf (P04049 whole entry): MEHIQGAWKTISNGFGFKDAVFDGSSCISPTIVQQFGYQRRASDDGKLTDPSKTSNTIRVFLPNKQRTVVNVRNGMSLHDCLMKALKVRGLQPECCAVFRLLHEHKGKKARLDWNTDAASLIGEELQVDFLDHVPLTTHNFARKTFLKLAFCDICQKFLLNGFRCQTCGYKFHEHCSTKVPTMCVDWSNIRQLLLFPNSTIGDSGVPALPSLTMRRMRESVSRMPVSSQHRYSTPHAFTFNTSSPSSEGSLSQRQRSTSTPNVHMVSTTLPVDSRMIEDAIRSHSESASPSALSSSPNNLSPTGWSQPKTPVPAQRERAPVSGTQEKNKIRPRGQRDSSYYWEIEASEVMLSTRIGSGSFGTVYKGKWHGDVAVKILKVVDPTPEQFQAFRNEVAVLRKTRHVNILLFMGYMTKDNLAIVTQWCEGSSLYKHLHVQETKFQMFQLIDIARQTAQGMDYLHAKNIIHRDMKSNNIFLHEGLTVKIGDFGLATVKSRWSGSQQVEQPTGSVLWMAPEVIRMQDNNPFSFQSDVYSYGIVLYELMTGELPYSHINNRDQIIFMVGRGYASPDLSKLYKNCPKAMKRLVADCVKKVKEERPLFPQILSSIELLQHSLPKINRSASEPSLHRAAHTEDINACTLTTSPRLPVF
Method: as §1, §2, §3, §4, §5

[4] = tested on: A-375P BRAF V600E (melanoma); assay: MTT assay; format: cell-based; conditions: A375P, 72 h; Table 5; 3 days incubation
Summary of the method: (§6)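 Cells were seeded at line-dependent density and stabilised overnight at 37 °C, then exposed to compounds for 3 days at 37 °C. MTT was then added for 2 h and the formazan dissolved in DMSO.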

[5] = tested on: HCT-116 KRAS G13D (colon); assay: MTT assay; format: cell-based; conditions: Homo sapiens, HCT-116, 72 h; Table 5; 3 days incubation; read-out: MTT assay IC50 KRAS mutant (Colon) HCT-116 KRAS G13D
Summary of the method: as §6

[6] = tested on: HUVEC (VEGF); assay: MTT assay; format: cell-based; conditions: Homo sapiens, 72 h, Table 5, 3 days incubation
Summary of the method: as §6

[7] = tested on: LS513 KRAS G12V (colon); assay: MTT assay; format: cell-based; conditions: Homo sapiens, LS-513, 72 h, 3 days incubation, read-out: MTT assay IC50 KRAS mutant (Colon) LS513 KRAS G12V
Summary of the method: as §6

[8] = tested on: SK-MEL2 NRAS Q61R (melanoma); assay: MTT assay; format: cell-based; conditions: Homo sapiens, SK-MEL-2, 72 h; Table 5; 3 days incubation
Summary of the method: as §6

[9] = tested on: SW620 KRAS G12V (colon); assay: MTT assay; format: cell-based; conditions: Homo sapiens, SW-620, 72 h; Table 5; 3 days incubation; read-out: MTT assay IC50 KRAS mutant (Colon) SW620 KRAS G12V
Summary of the method: as §6

[10] = tested on: WiDR BRAF V600E (colon); assay: MTT assay; format: cell-based; conditions: Homo sapiens, 72 h, Table 5, 3 days incubation, read-out: MTT assay IC50 BRAF mutant (Colon) WiDR BRAF V600E
Summary of the method: as §6

[11] = tested on: LS513 human colorectal cancer cell line xenograft; assay: Antitumor effect on human colorectal cancer LS513 cell line xenograft; format: in vivo, Balb/c nu/nu nude mice; conditions: oral, twice a day, 14 days
Excerpt: In this experiment, 5 to 6-week-old female Balb/c nu/nu nude mice (weighed 18 to 20 g) were used. The mice were provided from Nara Biotech Co., Ltd. During the experiment, all the animals were housed on a mouse constant temperature/constant humidity shelf (Individually Ventilated Cages System, LAB & BIO).
Each cage (37.2 cm length×19.2 cm width×13.1 cm height) was sterilized with a sterilizer, and eight mice were received in each cage. The mice were maintained in a hygienic environment controlled to a temperature of 20 to 24° C. and a humidity of 40 to 70% with a 12-hr light/12-hr dark cycle. The mice were allowed to access sterilized feed and drinking water ad libitum. The care and treatment of these animals were carried out according to the Laboratory Animal Care Guidelines of Samjin Pharmaceutical Co., Ltd.
The mice were acclimated to the housing facility for 1 week, and then 0.1 mL of a cell suspension containing 1×10^7 cells was injected subcutaneously into the right flank of each mouse. After cell transplantation, the volume of the formed tumor was measured, and mice with formed tumors having a volume of 150 mm^3 or more were randomly divided into groups (each consisting of 7 to 8 animals) for treatment with the test compounds and a control. […] Administration of the drugs was continued for 14 days. […] At 3-day intervals from the starting day of the administration, the long axis and short axis of the tumor were measured with digital vernier calipers, and the tumor volume was calculated using the following equation and recorded: Tumor volume (TV)=Long axis×short axis^2/2.
Tumor growth inhibition for absolute tumor volume was calculated using the following equation. In the following equation, V0 is the tumor volume on the first day of drug administration (day 0), and Vt is the tumor volume after last drug administration.

[12] = target: VEGFR-2 tyrosine kinase (KDR) (Homo sapiens (Human), UniProt P35968); assay: VEGFR-2 tyrosine kinase inhibitory activity (ADP-Glo kinase assay); format: biochemical; conditions: KDR 50 ng
Chain of VEGFR-2 tyrosine kinase (KDR) (P35968 20-1356): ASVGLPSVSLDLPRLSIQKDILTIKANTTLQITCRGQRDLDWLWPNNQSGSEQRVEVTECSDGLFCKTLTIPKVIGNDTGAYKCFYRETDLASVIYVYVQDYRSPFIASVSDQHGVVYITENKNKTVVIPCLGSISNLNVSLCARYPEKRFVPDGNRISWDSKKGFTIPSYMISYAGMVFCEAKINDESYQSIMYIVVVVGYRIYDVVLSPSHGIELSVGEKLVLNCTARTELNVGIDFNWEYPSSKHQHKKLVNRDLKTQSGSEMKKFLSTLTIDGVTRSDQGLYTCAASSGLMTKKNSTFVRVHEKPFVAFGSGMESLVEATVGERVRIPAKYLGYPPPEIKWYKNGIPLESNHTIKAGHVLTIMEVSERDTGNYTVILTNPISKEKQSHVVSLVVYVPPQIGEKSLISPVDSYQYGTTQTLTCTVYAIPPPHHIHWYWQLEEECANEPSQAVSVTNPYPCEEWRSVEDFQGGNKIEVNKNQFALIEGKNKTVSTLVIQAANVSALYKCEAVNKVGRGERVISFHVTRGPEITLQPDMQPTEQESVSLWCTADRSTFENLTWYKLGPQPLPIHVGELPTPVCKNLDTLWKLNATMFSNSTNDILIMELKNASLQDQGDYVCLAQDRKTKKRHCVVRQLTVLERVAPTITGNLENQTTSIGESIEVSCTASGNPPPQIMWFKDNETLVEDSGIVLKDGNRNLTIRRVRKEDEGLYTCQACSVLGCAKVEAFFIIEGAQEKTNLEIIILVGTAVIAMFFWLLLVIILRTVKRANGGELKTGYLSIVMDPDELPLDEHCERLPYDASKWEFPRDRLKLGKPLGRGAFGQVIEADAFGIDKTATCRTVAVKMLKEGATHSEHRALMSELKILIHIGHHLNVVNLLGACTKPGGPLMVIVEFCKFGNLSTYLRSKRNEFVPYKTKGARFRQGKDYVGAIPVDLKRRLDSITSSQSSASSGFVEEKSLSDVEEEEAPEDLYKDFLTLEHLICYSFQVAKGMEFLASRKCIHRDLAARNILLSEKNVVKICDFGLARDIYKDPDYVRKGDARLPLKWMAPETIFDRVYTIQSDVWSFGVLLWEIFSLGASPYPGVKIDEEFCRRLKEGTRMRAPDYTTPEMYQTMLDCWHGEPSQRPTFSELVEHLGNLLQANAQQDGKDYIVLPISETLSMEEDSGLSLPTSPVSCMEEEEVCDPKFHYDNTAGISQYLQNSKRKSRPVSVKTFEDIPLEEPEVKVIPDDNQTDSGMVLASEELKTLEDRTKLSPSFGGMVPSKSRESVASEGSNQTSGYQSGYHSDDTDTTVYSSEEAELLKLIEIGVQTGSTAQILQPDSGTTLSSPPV
Method: The inhibitory activities of the compounds of the present invention against VEGFR-2 tyrosine kinase were analyzed using ADP-Glo™ kinase assay kit commercially available from Promega. In the principle of the analysis, kinase, a substrate and ATP are reacted with one another, and then ADP-Glo™ solution is added thereto. The ATP is removed while leaving the produced ADP, and the remaining ADP is converted to ATP by use of a kinase detection reagent, and the ATP is reacted with a luciferin substrate, and the emitted luminescence is measured.
Reaction time: 30 min (30° C.)/40 min/30 min;

Chain of B-Raf (P15056 whole entry): as the sequence (P15056 whole entry V600E) above, with E600V counted along it

SMILES | IC50 [1] [nM] | IC50 [2] [nM] | IC50 [3] [nM] | IC50 [4] [nM] | IC50 [5] [nM] | IC50 [6] [nM] | IC50 ([7]; Table 4) [nM] | IC50 ([7]; Table 5) [nM] | IC50 [8] [nM] | IC50 [9] [nM] | IC50 [10] [nM] | antitumor effect (tumor growth inhibition) compared to the control group ([11]; 30 mg/kg) | antitumor effect (tumor growth inhibition) compared to the control group ([11]; 60 mg/kg) [%] | antitumor effect (tumor growth inhibition) compared to the vehicle control ([11]; 60 mg/kg or 30 mg/kg (dose not specified per compound)) [%] | IC50 [12] [nM]
CC(C)(C#N)c1cccc(C(=O)Nc2cc(Nc3ncccc3-c3ncnc4[nH]cnc34)ccc2F)c1 [Example 21, N-(5-(3-(9H-purin-6-yl)pyridin-2-ylamino)-2-fluorophenyl)-3-(2-cyanopropan-2-yl)benzamide] | 21 | 10 | 10 | 24 | 63 | 40 | 333 | 160 | 129 | 249 | 28 | about 66.7% | 90.3 |  | 
O=C(Nc1cc(Nc2ncccc2-c2ncnc3[nH]cnc23)ccc1F)c1cc(F)cc(C(F)(F)F)c1 [Example 36, N-(5-(3-(9H-Purin-6-Yl)Pyridin-2-Ylamino)-2-Fluorophenyl)-3-Fluoro-5-(Trifluoromethyl)Benzamide] | 71 | 30 | 41 | 271 | 117 | 15 | 250 | 126 | 388 | 675 | 644 |  |  | 78.5 | 
Cc1ccc(NC(=O)c2cccc(C(F)(F)F)c2)cc1Nc1ncccc1-c1ncnc2[nH]cnc12 [Example 71, N-4-Methyl-5-[3-(9H-Purin-6-Yl)Pyridin-2-Ylamino)Phenyl-3-Trifluoromethylbenzamide] |  |  |  |  |  |  | 565 |  |  |  |  |  |  |  | 1600

— patent US10844062B2, “Pyridine derivative inhibiting RAF kinase and vascular endothelial growth factor receptor, method for preparing same, pharmaceutical composition containing same, and use thereof” (SAMJIN PHARMACEUTICAL CO., LTD., priority 2016, dated 2020)
